The values below come from paper PMC12368481, “Discovery of a Phenylalanine‐Derived Natural Compound as a Potential Dual Inhibitor of MDM2 and MDMX” (Chemmedchem, 2025).

This assay addresses T1, MDMX (Homo sapiens, UniProt O15151).
T1 construct: gene MDM4
T1 sequence (O15151 1-110 limits assumed): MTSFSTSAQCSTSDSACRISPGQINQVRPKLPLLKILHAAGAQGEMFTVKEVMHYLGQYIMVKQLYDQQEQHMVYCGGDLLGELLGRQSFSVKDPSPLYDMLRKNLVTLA
Put plainly: SPR (Biacore T200), multicycle kinetics. The format is binding. To be noted: read-out: MDMX / K D. (In general: SPR reads the build-up and loss of mass on a sensor chip optically.)

For the molecule `COC(CCCCCCC(C)C)C(=O)N[C@@H](Cc1ccccc1)C(=O)O` (stereo partly shown) [P5], the Kd was determined as 593 nM.
